The assay deals with T1, SMARCA2 (Homo sapiens, UniProt P51531).
T1 construct: endogenous in cells
Nature of the assay: SMARCA2 HiBiT degradation assay (cellular). Format: cell-based. The settings on record: for Emax: A549, Emax = amount of residual protein remaining in the cell following compound treatment; for DC50: SMARCA2 HiBiT cells, luminescence readout, 11-point titration from 10 μM, 6 hours or 16 hours, read-out: HiBit A549 SMARCA2 IP.

The source of these data is patent US20230002367A1, “BIFUNCTIONAL COMPOUNDS” (Hoffmann-La Roche Inc., priority 2019, published 2023).

Each structure is given as a SMILES string.

T1 sequence (P51531 whole entry): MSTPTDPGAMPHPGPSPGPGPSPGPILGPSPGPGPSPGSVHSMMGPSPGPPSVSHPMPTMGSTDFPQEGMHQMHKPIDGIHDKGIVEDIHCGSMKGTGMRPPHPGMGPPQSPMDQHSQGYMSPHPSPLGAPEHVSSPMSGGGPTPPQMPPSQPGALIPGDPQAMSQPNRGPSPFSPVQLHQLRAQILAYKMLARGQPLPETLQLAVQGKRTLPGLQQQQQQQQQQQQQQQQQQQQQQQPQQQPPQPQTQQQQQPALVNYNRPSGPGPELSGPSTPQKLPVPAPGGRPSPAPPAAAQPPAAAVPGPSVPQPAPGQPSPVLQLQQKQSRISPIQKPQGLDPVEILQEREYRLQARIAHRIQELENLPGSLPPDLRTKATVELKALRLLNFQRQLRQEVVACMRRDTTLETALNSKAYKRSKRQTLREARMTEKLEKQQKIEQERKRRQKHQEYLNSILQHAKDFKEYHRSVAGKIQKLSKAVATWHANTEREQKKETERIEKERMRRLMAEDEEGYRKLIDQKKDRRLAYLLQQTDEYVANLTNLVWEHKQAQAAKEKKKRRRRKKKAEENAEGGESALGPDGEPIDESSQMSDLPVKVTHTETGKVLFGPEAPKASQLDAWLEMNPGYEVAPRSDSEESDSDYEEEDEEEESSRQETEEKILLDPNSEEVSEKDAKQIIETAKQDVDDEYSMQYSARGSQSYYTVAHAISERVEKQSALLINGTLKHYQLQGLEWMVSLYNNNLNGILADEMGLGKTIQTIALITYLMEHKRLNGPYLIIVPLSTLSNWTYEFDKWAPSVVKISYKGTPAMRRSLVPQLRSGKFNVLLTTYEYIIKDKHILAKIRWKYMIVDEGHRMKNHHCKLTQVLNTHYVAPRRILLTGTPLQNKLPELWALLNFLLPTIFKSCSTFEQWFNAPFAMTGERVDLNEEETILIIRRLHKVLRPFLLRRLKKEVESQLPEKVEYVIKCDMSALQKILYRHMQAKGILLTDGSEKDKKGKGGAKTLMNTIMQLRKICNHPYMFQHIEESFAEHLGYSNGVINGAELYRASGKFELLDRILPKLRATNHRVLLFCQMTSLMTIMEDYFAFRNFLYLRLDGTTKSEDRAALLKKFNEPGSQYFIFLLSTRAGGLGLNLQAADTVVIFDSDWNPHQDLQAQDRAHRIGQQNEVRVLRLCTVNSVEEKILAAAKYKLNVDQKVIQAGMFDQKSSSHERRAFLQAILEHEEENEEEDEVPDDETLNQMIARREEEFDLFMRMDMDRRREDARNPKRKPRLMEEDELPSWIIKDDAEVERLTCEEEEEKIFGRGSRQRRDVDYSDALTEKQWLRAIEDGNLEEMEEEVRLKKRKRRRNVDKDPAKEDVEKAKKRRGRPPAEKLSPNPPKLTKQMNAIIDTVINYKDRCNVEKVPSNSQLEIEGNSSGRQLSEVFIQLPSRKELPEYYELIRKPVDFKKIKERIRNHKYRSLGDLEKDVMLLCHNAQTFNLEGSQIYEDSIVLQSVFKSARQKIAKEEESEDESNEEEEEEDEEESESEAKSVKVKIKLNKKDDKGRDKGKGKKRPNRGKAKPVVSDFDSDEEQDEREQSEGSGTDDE

`Cc1ncsc1-c1ccc(CNC(=O)[C@@H]2C[C@@H](O)CN2C(=O)[C@@H](NC(=O)CCCCCCCCC(=O)N2CCN(c3ccc(N4CCCC(Oc5cc(-c6ccccc6N)nnc5N)C4)cc3)CC2)C(C)(C)C)cc1` (stereo partly drawn) [Example 100, (2S,4R)-1-[(2S)-2-[[10-[4-[4-[3-[3-amino-6-(2-aminophenyl)pyridazin-4-yl]oxy-1-piperidyl]phenyl]piperazin-1-yl]-10-oxo-decanoyl]amino]-3,3-dimethyl-butanoyl]-4-hydroxy-N-[[4-(4-methylthiazol-5-yl)phenyl]methyl]pyrrolidine-2-carboxamide]: the maximal response (Emax) worked out at 62% and the DC50 was 998 nM.

With `Cc1ncsc1-c1ccc(CNC(=O)[C@@H]2C[C@@H](O)CN2C(=O)[C@@H](NC(=O)CCCCCCCCC(=O)N2CCN(CCOc3ccccc3N3C4CCC3CN(c3cc(-c5ccccc5O)nnc3N)C4)CC2)C(C)(C)C)cc1` [Example 55, (2S,4R)-1-[(2S)-2-[[10-[4-[2-[2-[3-[3-amino-6-(2-hydroxyphenyl)pyridazin-4-yl]-3,8-diazabicyclo[3.2.1]octan-8-yl]phenoxy]ethyl]piperazin-1-yl]-10-oxo-decanoyl]amino]-3,3-dimethyl-butanoyl]-4-hydroxy-N-[[4-(4-methylthiazol-5-yl)phenyl]methyl]pyrrolidine-2-carboxamide], the Emax amounted to 27% and the DC50 came out at 2580 nM.

As for `Cc1ncsc1-c1ccc([C@H](C)NC(=O)[C@@H]2C[C@@H](O)CN2C(=O)[C@@H](NC(=O)CCCCCCCCC(=O)N2CCN(CCOc3ccc(N4CCCC(Oc5cc(-c6ccccc6O)nnc5N)C4)cc3)CC2)C(C)(C)C)cc1` (mixture of isomers) [Example 78, rac-(2S,4R)-4-hydroxy-1-[rac-(2S)-2-[[10-[4-[2-[4-[3-[3-amino-6-(2-hydroxyphenyl)pyridazin-4-yl]oxy-1-piperidyl]phenoxy]ethyl]piperazin-1-yl]-10-oxo-decanoyl]amino]-3,3-dimethyl-butanoyl]-N-[rac-(1S)-1-[4-(4-methylthiazol-5-yl)phenyl]ethyl]pyrrolidine-2-carboxamide], the Emax was found to be 20% and the DC50 stood at 63 nM.

As for `Cc1ncsc1-c1ccc([C@H](C)NC(=O)[C@@H]2C[C@@H](O)CN2C(=O)[C@@H](NC(=O)CCCCCCCCCCCCC(=O)N(C)CC(COc2cc(-c3ccccc3O)nnc2N)c2ccccc2)C(C)(C)C)cc1` (mixture of isomers) [Example 23, N′-[3-[3-amino-6-(2-hydroxyphenyl)pyridazin-4-yl]oxy-2-phenyl-propyl]-N′-methyl-N-[rac-(1S)-2,2-dimethyl-1-[rac-(2S,4R)-4-hydroxy-2-[[rac-(1S)-1-[4-(4-methylthiazol-5-yl)phenyl]ethyl]carbamoyl]pyrrolidine-1-carbonyl]propyl]tetradecanediamide], the Emax came to 38% and the DC50 was 428 nM.

As to `Cc1ncsc1-c1ccc(CNC(=O)[C@@H]2C[C@@H](O)CN2C(=O)[C@@H](NC(=O)CCCCCCCCC(=O)N2CCOC3(CCN(c4cc(-c5ccccc5O)nnc4N)CC3)C2)C(C)(C)C)cc1` [Example 12, (2S,4R)-1-[(2S)-2-[[10-[9-[3-amino-6-(2-hydroxyphenyl)pyridazin-4-yl]-1-oxa-4,9-diazaspiro[5.5]undecan-4-yl]-10-oxo-decanoyl]amino]-3,3-dimethyl-butanoyl]-4-hydroxy-N-[[4-(4-methylthiazol-5-yl)phenyl]methyl]pyrrolidine-2-carboxamide], the Emax was determined as 43% and the DC50 stood at 2460 nM.

As a reminder, the Emax is the maximal effect, on the per cent scale that the assay sets.
